From patent US5084462A, “4-quinoline carboxylic acid derivatives useful as immunosuppressive agents” (The Du Pont Merck Pharmaceutical Company, priority 1990, dated 1992)
Read-outs that look alike come from different tables or passages of the source.

Assays:
[1] = test system: contact sensitivity response to 2,4-dinitrofluorobenzene (DNFB); experiment: Contact sensitivity response to 2,4-dinitrofluorobenzene (DNFB) in mice; type: in vivo, Balb/c female mice; conditions: for inhibition in vivo at 1 mg/kg: 1.0 mg/kg oral
Procedure: This is an antigen-specific T-cell mediated inflammatory response that represents delayed-type hypersensitivity reactions seen in both humans and other mammals.
Balb/c female mice (.perspectiveto.20g, Charles River) were sensitized on the shaved abdomen with 25 μl of 0.5% 2,4-dinitrofluorobenzene ([…], Eastman Kodak Co.) in a vehicle of 4:1 acetone:olive oil on days 0 and 1. Mice were ear challenged with 20 μl of 0.2% DNFB in a vehicle of 4:1 acetone:olive oil on day 5. A constant area of the ears was measured immediately before challenge and 24 hours later with an engineer's micrometer. Ear swelling was expressed as the difference in ear thickness before and after challenge in units of 10^-4 inches±SEM. Percent suppression was calculated as: [formula] […] Negative controls were not sensitized on days 0 and 1 but were ear challenged on day 5. Ten mice were used per group.

[2] = test system: human mixed lymphocyte reaction; experiment: Human mixed lymphocyte reaction (3H-thymidine incorporation); type: cell-based; conditions: Table 4, human PBMC of two donors, 6 days
Excerpt: Contact sensitivity to DNFB has teen extensively studied and characterized in the mouse to determine the regulatory mechanisms involved in cell mediated immune responses (Claman, et al., Immunol Rev 50:105, 1980). This is an antigen-specific T-cell mediated inflammatory response that represents delayed-type hypersensitivity reactions seen in both humans and other mammals. The primary use of the human mixed lymphocyte reaction is for the determination of transplantation compatibility between the donor (graft) and the recipient (Park and Good, p. 71. In Yunis, et al., Tissue typing and organ transplantation. 1973 Academic Press Inc., N.Y.).
Blood was obtained by venipuncture from two nonrelated human donors. Peripheral blood mononuclear cells (PBMC) were isolated from these samples by using the Leuco Prep procedure (Becton-Dickinson). PBMC were washed twice in phosphate buffered saline (without calcium and magnesium) and the separate cell isolations were adjusted to the appropriate concentrations in media (RPMI 1640) supplemented with 10% human AB serum and […] gentamicin. Cells from donor A (2×10^5) were incubated with cells from donor B (2×10^5) in 96 well round bottom microliter plates at 37° C., 5% CO2 for 6 days. Eighteen hours prior to harvesting cells from the plates, all wells were pulsed with 1 μCi of ^3 H-thymidine. Cells from the plates were harvested on day 6 and ^3 H-thymidine incorporation was determined using a scintillation counter.

[3] = test system: adjuvant-induced arthritis; experiment: Adjuvant-induced arthritis in rats; type: in vivo, Male Lewis rats; conditions: for Non-Injected Hind-Paw Volume / % Suppression: day 18; for % Suppression: Table 5, non-injected hind paw
Procedure: Rat adjuvant-induced arthritis represents a systemic inflammatory disease with bone and cartilage changes similar to that observed in rheumatoid arthritis, but in an accelerated time span (Pearson, Arth Rheum 7:80, 1964).
Male Lewis rats (Charles River) weighing 160-210 grams were injected subcutaneously with 0.1 ml of Freund's Complete Adjuvant containing 5 mg of M. butyricum/ml of paraffin oil (Difco Laboratories) into the plantar region of the right hind paw. Paraffin oil was injected for non-arthritic controls. Ten rats were used per group. Compounds were prepared in 0.25% Methocel® (Dow Chemical Co) with one drop of Tween® 80 per 10 ml of Methocel®. Animals were dosed every day beginning on the day of paw injection until day 18. The weight of each animal was recorded every other day beginning on the day of the paw injections. On day 18 the animals were weighed, and the non-injected hind paw volume was measured using a Ugo Basile Volume Differential Plethysmometer.

[4] = Mus musculus, po, 24 h, Table 3, ear swelling, 20.0 mg/kg oral, read-out: % Suppression

C[C@@H]1C[C@H]2[C@@H]3CCC4=CC(=O)C=C[C@]4(C)[C@@]3(F)[C@@H](O)C[C@]2(C)[C@@]1(O)C(=O)CO [Dexamethasone, reference compound]
inhibition in vivo at 0.2 mg/kg ([1]; Mus musculus, po, 24 h, Table 2, ear swelling, 0.2 mg/kg oral, read-out: % Suppression): 28.8%
inhibition in vivo at 1 mg/kg ([1]; Mus musculus, po, 24 h, Table 2, ear swelling, read-out: % Suppression): 44.3%
inhibition in vivo at 5 mg/kg ([1]; Mus musculus, po, 24 h, Table 2, ear swelling, 5.0 mg/kg oral, read-out: % Suppression): 68.6%
inhibition in vivo at 10 mg/kg ([1]; Mus musculus, po, 24 h, Table 2, ear swelling, 10.0 mg/kg oral, read-out: % Suppression): 79.9%
inhibition in vivo at 1 mg/kg ([1]; Mus musculus, po, 24 h, Table 3, ear swelling, read-out: % Suppression): 43.8%
ED50 ([1]; Mus musculus, Table 2, suppression of ear swelling, oral, days -2 through 6, read-out: ED50): 1.5 mg/kg
Ear Swelling (units ± SEM), increase in ear thickness from day 5 to day 6 ([1]; Table 2, 0.2 mg/kg oral): 52.95 ± 3.39 10^-4 inches
Ear Swelling (units ± SEM), increase in ear thickness from day 5 to day 6 ([1]; Table 2, 1.0 mg/kg oral): 41.60 ± 2.46 10^-4 inches
Ear Swelling (units ± SEM), increase in ear thickness from day 5 to day 6 ([1]; Table 2, 5.0 mg/kg oral): 23.79 ± 2.71 10^-4 inches
Ear Swelling (units ± SEM), increase in ear thickness from day 5 to day 6 ([1]; Table 2, 10.0 mg/kg oral): 15.50 ± 2.10 10^-4 inches
Ear Swelling (units ± SEM), increase in ear thickness from day 5 to day 6 ([1]; Table 3, 1.0 mg/kg oral): 42.20 ± 2.61 10^-4 inches

Cc1c(-c2ccc(Sc3ccccc3)cc2)nc2ccc(Cl)cc2c1C(=O)O [Example 7]
inhibition in vivo at 20 mg/kg [1, 4]: 14.4%
Ear Swelling (units ± SEM), increase in ear thickness from day 5 to day 6 ([1]; Table 3, 20.0 mg/kg oral): 62.95 ± 3.40 10^-4 inches

O=C(O)c1cc(-c2ccc(-c3ccccc3)cc2)nc2ccc(F)cc12 [Example 9]
inhibition in vivo at 20 mg/kg [1, 4]: 43.3%
Ear Swelling (units ± SEM), increase in ear thickness from day 5 to day 6 ([1]; Table 3, 20.0 mg/kg oral): 42.60 ± 2.68 10^-4 inches

Cc1c(-c2ccc(SC(C)C)cc2)nc2ccc(F)cc2c1C(=O)O [Example 6]
inhibition in vivo at 20 mg/kg [1, 4]: 21.1%
Ear Swelling (units ± SEM), increase in ear thickness from day 5 to day 6 ([1]; Table 3, 20.0 mg/kg oral): 58.20 ± 4.63 10^-4 inches

Cc1c(-c2ccc(-c3ccccc3F)cc2)nc2ccc(F)cc2c1C(=O)[O-].[Na+] [Example 2, Sodium 2-(2'-Fluoro-1,1'-biphenyl-4-yl)-6-fluoro-3-methylquinoline-4-carboxylate]
ED50 ([1]; Mus musculus, po): 0.95 mg/kg
inhibition in vivo at 0.4 mg/kg ([1]; Mus musculus, po, 24 h, read-out: % Suppression, Table 2, ear swelling, 0.4 mg/kg oral): 30.2%
inhibition in vivo at 2 mg/kg ([1]; Mus musculus, po, 24 h, read-out: % Suppression, Table 2, ear swelling, 2.0 mg/kg oral): 66.1%
inhibition in vivo at 10 mg/kg ([1]; Mus musculus, po, 24 h, read-out: % Suppression, Table 2, ear swelling, 10.0 mg/kg oral): 92.3%
inhibition in vivo at 20 mg/kg ([1]; Mus musculus, po, 24 h, read-out: % Suppression, Table 2, ear swelling, 20.0 mg/kg oral): 94.5%
Ear Swelling (units ± SEM), increase in ear thickness from day 5 to day 6 ([1]; Table 2, 0.4 mg/kg oral): 51.95 ± 2.33 10^-4 inches
Ear Swelling (units ± SEM), increase in ear thickness from day 5 to day 6 ([1]; Table 2, 2.0 mg/kg oral): 25.61 ± 3.39 10^-4 inches
Ear Swelling (units ± SEM), increase in ear thickness from day 5 to day 6 ([1]; Table 2, 10.0 mg/kg oral): 6.40 ± 1.09 10^-4 inches
Ear Swelling (units ± SEM), increase in ear thickness from day 5 to day 6 ([1]; Table 2, 20.0 mg/kg oral): 4.75 ± 1.20 10^-4 inches
IC50 [2]: 0.025 µM
ED50 ([3]; Rattus norvegicus, 432 h, Table 5 footnote, adjuvant-induced arthritis): < 10 mg/kg
Weight Gain ([3]; Table 5, 2.0 mg/kg daily to day 18): -1.5 ± 3.6 g
Non-Injected Hind-Paw Volume ([3]; Table 5, 2.0 mg/kg daily): 1.62 ± 0.05 mL
Weight Gain ([3]; Table 5, 10 mg/kg daily to day 18): 65.6 ± 5.2 g
Non-Injected Hind-Paw Volume ([3]; Table 5, 10 mg/kg daily): 1.15 ± 0.02 mL
% Suppression ([3]; 2.0 mg/kg daily): 34.5%
% Suppression ([3]; 10 mg/kg daily): 96.2%
Toxicity ([3]; Table 5 footnote, 25.0 mg/kg daily): Toxic by day 7

Cc1c(-c2ccc(Oc3ccccc3)cc2)nc2ccc(F)cc2c1C(=O)O [Example 3]
inhibition in vivo at 20 mg/kg [1, 4]: 83.5%
Ear Swelling (units ± SEM), increase in ear thickness from day 5 to day 6 ([1]; Table 3, 20.0 mg/kg oral): 14.25 ± 1.49 10^-4 inches

Cc1c(-c2ccc(Sc3ccccc3)cc2)nc2ccc(Cl)cc2c1C(=O)O [Example 8]
Ear Swelling (units ± SEM), increase in ear thickness from day 5 to day 6 ([1]; Table 3, 20.0 mg/kg oral): 63.25 ± 3.58 10^-4 inches
% Suppression ([1]; Table 3, ear swelling, 20.0 mg/kg oral, 20 mg/kg): 13.98%

Cc1c(-c2ccc([S+]([O-])c3ccccc3)cc2)nc2ccc(F)cc2c1C(=O)O (centres unmarked) [Example 10]
inhibition in vivo at 20 mg/kg [1, 4]: 22.4%
Ear Swelling (units ± SEM), increase in ear thickness from day 5 to day 6 ([1]; Table 3, 20.0 mg/kg oral): 57.28 ± 2.36 10^-4 inches
